Tests used:
Assay type in all cases: in vivo
Japonica rice = test: Post-emergence test experiment, crop selectivity; conditions: post-emergence spray, 600 g a.i./ha plus water 450 kg/ha, 3 weeks in greenhouse
Experimental: (§1) The above described growth inhibition rate is fresh weight inhibition rate.
(§2) Post-emergence test experiment: Monocotyledonous and dicotyledonous weed seeds and main crop seeds (i. e. wheat, corn, rice, soybean, cotton, oilseed, millet and sorghum.) were put into a plastic pot loaded with soil. Then covered with 0.5-2 cm soil, the seeds were allowed to grow in good greenhouse environment. The test plants were treated at 2-3 leaf stage 2 weeks after sowing. The test compounds of the invention were dissolved with acetone respectively, then added with tween-80, and using 1.5 liters per hectare of an emulsible concentrate of methyl oleate as a synergist, and diluted by certain amount of water to certain concentration. The solution was sprayed to the plants with a sprayer. Then the plants were cultured for 3 weeks in the greenhouse, and the experiment result of weed controlling effect was listed in tables 3-4.

Indica rice = test: Post-emergence test experiment, crop selectivity; conditions: post-emergence spray, 600 g a.i./ha plus water 450 kg/ha, 3 weeks in greenhouse
Experimental: as §1, §2

Cyperus iria = test: Post-emergence test experiment, weed control; conditions: post-emergence spray, 600 g a.i./ha plus water 450 kg/ha, 3 weeks in greenhouse
Experimental: as §1, §2

[1] = system: Monocotyledonous and dicotyledonous weed seeds and main crop seeds; test: Post-emergence test experiment (Table 3, 1000 g a.i./ha); conditions: 3 weeks in greenhouse, fresh weight inhibition
Method in brief: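 Weeds and crops (wheat, corn, rice, soybean, cotton, oilseed, millet, sorghum) grown in soil in the greenhouse and sprayed post-emergence at 2–3 leaf stage, 2 weeks after sowing. Compound in acetone with tween-80 plus methyl oleate emulsible concentrate (1.5 L/ha) as synergist, diluted in water. Fresh weight inhibition scored after 3 weeks.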

| Structure (SMILES) | Activity level (fresh weight growth inhibition rate), Japonica rice (Japonica rice) | Activity level (fresh weight growth inhibition rate), Indica rice (Indica rice) | Activity level (fresh weight growth inhibition rate), Cyperus iria (Cyperus iria) | Activity level (growth inhibition rate) Digitaria sanguinalis [1] | Activity level (growth inhibition rate) Echinochloa crusgalli [1] | Activity level (growth inhibition rate) Galium spurium [1] | Activity level (growth inhibition rate) Leptochloa chinensis [1] | Activity level (growth inhibition rate) Monochoria Vaginalis [1] | Activity level (growth inhibition rate) Murdannia triquetra [1] | Activity level (growth inhibition rate) Setaria viridis [1] |
| --- | --- | --- | --- | --- | --- | --- | --- | --- | --- | --- |
| CC(Oc1nc(F)c(Cl)c(N)c1Cl)C(=O)ON=C(C#N)c1ccc(Cl)cc1 (stereo not drawn) [Compound 87] | 0 (Level 0: the growth inhibition rate is less than 5%) | 0 (Level 0: the growth inhibition rate is less than 5%) | 5 (Level 5: the growth inhibition rate is greater than 85%) | 5 (Level 5: the growth inhibition rate is greater than 85%) | 5 (Level 5: the growth inhibition rate is greater than 85%) | 5 (Level 5: the growth inhibition rate is greater than 85%) | 5 (Level 5: the growth inhibition rate is greater than 85%) | 5 (Level 5: the growth inhibition rate is greater than 85%) | 5 (Level 5: the growth inhibition rate is greater than 85%) | 5 (Level 5: the growth inhibition rate is greater than 85%) |
| CC(Oc1nc(F)c(Cl)c(N)c1Cl)C(=O)ON=C(c1ccc(N(C)C)cc1)[N+](=O)[O-] (stereo not drawn) [Compound 90] | 0 (Level 0: the growth inhibition rate is less than 5%) | 0 (Level 0: the growth inhibition rate is less than 5%) | 5 (Level 5: the growth inhibition rate is greater than 85%) | 5 (Level 5: the growth inhibition rate is greater than 85%) | 5 (Level 5: the growth inhibition rate is greater than 85%) | 5 (Level 5: the growth inhibition rate is greater than 85%) | 5 (Level 5: the growth inhibition rate is greater than 85%) | 5 (Level 5: the growth inhibition rate is greater than 85%) | 5 (Level 5: the growth inhibition rate is greater than 85%) | 5 (Level 5: the growth inhibition rate is greater than 85%) |
| CC=COc1ccc(C(=NOC(=O)C(C)Oc2nc(F)c(Cl)c(N)c2Cl)C(=O)OCC)cc1 (stereo not drawn) [Compound 92] | 0 (Level 0: the growth inhibition rate is less than 5%) | 0 (Level 0: the growth inhibition rate is less than 5%) | 5 (Level 5: the growth inhibition rate is greater than 85%) | 5 (Level 5: the growth inhibition rate is greater than 85%) | 5 (Level 5: the growth inhibition rate is greater than 85%) | 5 (Level 5: the growth inhibition rate is greater than 85%) | 5 (Level 5: the growth inhibition rate is greater than 85%) | 5 (Level 5: the growth inhibition rate is greater than 85%) | 5 (Level 5: the growth inhibition rate is greater than 85%) | 5 (Level 5: the growth inhibition rate is greater than 85%) |
| CCC(=NOC(=O)C(C)Oc1nc(F)c(Cl)c(N)c1Cl)C(=O)NCc1ccc(C)cc1 (stereo not drawn) [Compound 100] | 0 (Level 0: the growth inhibition rate is less than 5%) | 0 (Level 0: the growth inhibition rate is less than 5%) | 5 (Level 5: the growth inhibition rate is greater than 85%) | 5 (Level 5: the growth inhibition rate is greater than 85%) | 5 (Level 5: the growth inhibition rate is greater than 85%) | 5 (Level 5: the growth inhibition rate is greater than 85%) | 5 (Level 5: the growth inhibition rate is greater than 85%) | 5 (Level 5: the growth inhibition rate is greater than 85%) | 5 (Level 5: the growth inhibition rate is greater than 85%) | 5 (Level 5: the growth inhibition rate is greater than 85%) |
| CC(Oc1nc(F)c(Cl)c(N)c1Cl)C(=O)ON=C(C(=O)NCc1ccco1)c1ccccc1 (stereo not drawn) [Compound 104] | 0 (Level 0: the growth inhibition rate is less than 5%) | 0 (Level 0: the growth inhibition rate is less than 5%) | 5 (Level 5: the growth inhibition rate is greater than 85%) | 5 (Level 5: the growth inhibition rate is greater than 85%) | 5 (Level 5: the growth inhibition rate is greater than 85%) | 5 (Level 5: the growth inhibition rate is greater than 85%) | 5 (Level 5: the growth inhibition rate is greater than 85%) | 5 (Level 5: the growth inhibition rate is greater than 85%) | 5 (Level 5: the growth inhibition rate is greater than 85%) | 5 (Level 5: the growth inhibition rate is greater than 85%) |
| CC(Oc1nc(F)c(Cl)c(N)c1Cl)C(=O)ON=C1CCCC1 (stereo not drawn) [Compound 117] | 0 (Level 0: the growth inhibition rate is less than 5%) | 0 (Level 0: the growth inhibition rate is less than 5%) | 5 (Level 5: the growth inhibition rate is greater than 85%) | 5 (Level 5: the growth inhibition rate is greater than 85%) | 5 (Level 5: the growth inhibition rate is greater than 85%) | 5 (Level 5: the growth inhibition rate is greater than 85%) | 5 (Level 5: the growth inhibition rate is greater than 85%) | 5 (Level 5: the growth inhibition rate is greater than 85%) | 5 (Level 5: the growth inhibition rate is greater than 85%) | 5 (Level 5: the growth inhibition rate is greater than 85%) |
